The record followed here is patent US20260193227A1, “THERAPEUTIC COMPOUNDS AND METHODS” (UNIVERSITY OF IOWA RESEARCH FOUNDATION, priority 2022, published 2026).

“Also recorded” adds a separate entry of the source.

The target in one assay is T1, RPA-ssDNA interaction (Homo sapiens, UniProt P27694).
T1 construct: made in house
As to the kind of experiment: FRET-based inhibition of the RPA-ssDNA interaction. Format: binding. Particulars: FRET titration. The method, then: Proteins: The 6×His-tagged human RAD52 proteins (wild type and mutants) and untagged human RPA were expressed and purified as previously described in (Hengel S R, eLife. 2016; 5; Grimme J M, et al., Nucleic Acids Res. 2010; 38(9):2917-30; and Henricksen L A, et al., The Journal of biological chemistry. 1994; 269(15):11121-32). RPA and RAD52 protein concentrations were determined by measuring absorbance at 280 nm using extinction coefficients of 88,830 M^−1 cm^−1 and 40,470 M^−1 cm^−1, respectively.
FRET-based DNA binding and inhibition assays: FRET-based that monitor the RAD52-ssDNA, RPA-ssDNA and RAD52-RPA-ssDNA binding were carried out as previously described (Hengel S R, eLife. 2016; 5; Grimme J M, et al., Nucleic Acids Res. 2010; 38(9):2917-30; and Grimme J M, Spies M. FRET-based assays to monitor DNA binding and annealing by Rad52 recombination mediator protein. Methods in molecular biology (Clifton, NJ). 2011; 745:463-83) using Cary Eclipse Spectrofluorimeter (Agilent) at 25° C., in 5 mm quartz cuvettes, and in buffer containing 30 mM Tris-Acetate (pH 7.5) and 1 mM DTT. Cy3 dye was excited at 530 nm and its emission was monitored at 565 nm. Emission of Cy5 acceptor fluorophore excited through the energy transfer from Cy3 donor is monitored at 660 nm simultaneously with emission of Cy3 dye. Both the excitation and the emission slits were set to 10 nm. All experiments were carried out using 1 nM (molecules) Cy3-dT30-Cy5 ssDNA. The optimal concentrations of the RAD52 (6 nM) and RPA (1 nM) proteins were selected by titrating the respective protein into 1 nM Cy3-dT30-Cy5 solution, and chosen based on the largest separation of the FRET values corresponding to the protein bound and free DNA.
The inhibition of the RAD52-ssDNA, RPA-ssDNA and RAD52-RPA-ssDNA complexes was evaluated by titrating each compound to the respective complex, measuring Cy3 and Cy5 fluorescence, and calculating FRET as previously described (Hengel, S. R., et al., eLife, 5).
Spectral properties of many compounds overlapped with the Cy3 and Cy5 fluorescence. To correct the calculated FRET values for the compound signal, the fluorogenic compounds were titrated into buffer and into solution of 1 nM Cy3-dT30-Cy5. For all tested compounds, the change in the signal in the Cy3 and Cy5 channels with and without Cy3/Cy5-labeled DNA present was the same. […] To account for the dye fluorescence, for each compound concentration, the apparent change in FRET of the ssDNA in the presence the compound was subtracted from the respective FRET signal of the RAD52-ssDNA, RPA-ssDNA or RAD52-ssDNA-RPA complex at the same inhibitor concentration. The IC50 values were calculated by fitting the corrected FRET data to the four-parameter dose response model using GraphPad Prism. All data are shown as average for at least three independent experiments ±standard deviation. The IC50 values are presented with their respective fitting error.

The test system of assay [1] is EUFA423F and EUFA423F HA cells. As to the kind of experiment: Clonogenic survival assay. The note with it: cells pre-treated 72 hours, colonies after 8 days. Format: cell-based, human. An excerpt:
Cell lines: EUFA423F cells that are derived from a Fanconi Anemia patient with complementation group D1 and have biallelic mutations (7691 insAT and 9900 insA) in BRCA2 that result in two different truncated forms of BRCA2 (Howlett N G, et al., Science (New York, NY). 2002; 297(5581):606-9) and its counterpart complemented with expression vector for full-length BRCA2 (EUFA HA) were a generous gift from Dr. Simon Powell, Molecular Biology Program, Radiation Oncology, Sloan-Kettering Cancer Center, New York, NY).
Cell proliferation assay: Selective toxicity of the compounds towards human BRCA2 deficient cells was tested in EUFA423F and its complement EUFA423F HA using CellTiter-Glo® Luminescent Cell Viability Assay (Promega, Madison, WI). […] Post treatment, the cells were washed, treated with the CellTiter-Glo® reagent was added and the plate was analyzed as using a Gen5 (ver2.1) luminosity plate reader. The luminescence that reports on ATP generation by the surviving cells was normalized for the DMSO treated control as 100%. The normalized luminescence (average±standard deviation for at least three independent measurements obtained with different cell passages) was plotted in GraphPad Prism as a function of compound concentration. […] A colony had to contain at least 50 cells to be counted. […]

T1 sequence (P27694 whole entry): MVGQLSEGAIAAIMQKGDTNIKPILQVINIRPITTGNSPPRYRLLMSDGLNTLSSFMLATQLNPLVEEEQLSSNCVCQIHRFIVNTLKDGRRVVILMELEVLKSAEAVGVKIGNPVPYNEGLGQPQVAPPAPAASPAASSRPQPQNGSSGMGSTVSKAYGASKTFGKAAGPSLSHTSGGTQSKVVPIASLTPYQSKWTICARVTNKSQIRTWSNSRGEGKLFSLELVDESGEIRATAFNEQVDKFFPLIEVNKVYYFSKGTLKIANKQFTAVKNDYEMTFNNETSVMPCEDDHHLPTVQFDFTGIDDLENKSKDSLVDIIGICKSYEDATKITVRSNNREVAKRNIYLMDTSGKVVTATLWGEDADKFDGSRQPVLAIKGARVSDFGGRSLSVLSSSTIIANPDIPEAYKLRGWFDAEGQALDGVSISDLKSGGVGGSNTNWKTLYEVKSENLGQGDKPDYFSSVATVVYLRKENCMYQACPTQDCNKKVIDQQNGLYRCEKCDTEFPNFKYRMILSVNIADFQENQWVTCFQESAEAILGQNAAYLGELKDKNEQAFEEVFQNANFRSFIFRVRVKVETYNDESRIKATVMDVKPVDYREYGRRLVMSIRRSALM
T1 sequence (P15927 whole entry partner): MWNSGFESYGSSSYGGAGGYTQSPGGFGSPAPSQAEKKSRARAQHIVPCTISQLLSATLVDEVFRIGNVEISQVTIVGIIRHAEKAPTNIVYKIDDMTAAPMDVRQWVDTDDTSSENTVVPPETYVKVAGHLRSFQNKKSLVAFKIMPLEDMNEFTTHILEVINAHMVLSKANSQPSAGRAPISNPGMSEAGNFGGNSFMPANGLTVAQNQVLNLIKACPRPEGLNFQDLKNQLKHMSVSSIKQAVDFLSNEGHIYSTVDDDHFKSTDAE
T1 sequence (P35244 whole entry partner): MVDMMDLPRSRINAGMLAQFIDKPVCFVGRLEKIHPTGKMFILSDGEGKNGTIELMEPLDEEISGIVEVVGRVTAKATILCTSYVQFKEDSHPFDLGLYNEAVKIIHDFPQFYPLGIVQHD

In the case of `O=C(Cn1cccc([N+](=O)[O-])c1=O)c1c[nH]c2ccccc12` [Example 1], the “effect on the RPA-ssDNA complex” value at RPA-ssDNA interaction is “yields FRET values corresponding to the free ssDNA”. Besides, the “clonogenic survival: confirmation of effect on cell viability” value in assay [1] is on record as “confirmed”.
On to `COc1ccccc1NS(=O)(=O)c1cc(C(=O)O)ccc1C` [Example 8], for which the “effect on the RPA-ssDNA complex” value at RPA-ssDNA interaction (listed as Z56) is “does not change the FRET values of the RPA-ssDNA complex; also recorded: no effect on the RPA-ssDNA complex”. The “clonogenic survival: confirmation of effect on cell viability” value in assay [1] is reported as “confirmed”.
